Results on one compound are retold here after US20260041683A1, “Compounds with Anti-Acinetobacter Baumannii Activity” (University of Kentucky Research Foundation, priority 2022, published 2026).

≈ marks a conversion by molar mass, not a printed value. Entries after “also recorded” stand apart in the source; their conditions may differ. Read-outs that look alike come from different tables or passages of the source.

Data set [1] concerns Ab ATCC 19606. The experiment in a line: Development of resistance, 15-passage MIC assay. Format: cell-based, Acinetobacter baumannii. The settings on record: 15 passages at ½×MIC.
Data set [2] has as its system biofilm formed by Ab ATCC 19606. In words: Biofilm prevention assay (crystal violet). The settings on record: compound added while biofilm is forming.
Data set [3] deals with Ab ATCC 19606. In words: Time-kill curves. Particulars: 1×MIC and 4×MIC, up to 24 h.
For data set [4], the system named is human embryonic kidney cells (HEK-293). In words: Mammalian cytotoxicity assay (resazurin). The settings on record: HEK-293, 32 μg/mL (printed 32 g/mL for 3e), 24 h. Background: Resazurin is reduced to fluorescent resorufin, in cell work by metabolically active cells.
For data set [5], the system named is P. aeruginosa ATCC 27853. In words: MIC determination. Format: cell-based. Particulars: Pseudomonas aeruginosa, ATCC27853; Table 5; Mueller-Hinton medium; G = P. aeruginosa ATCC 27853; read-out: MIC strain G.
For data set [6], the system named is S. enterica ATCC 14028. In words: MIC determination. Format: cell-based. Particulars: Salmonella enterica, ATCC14028.
The subject of data set [7] is S. epidermidis ATCC 12228. The experiment in a line: MIC determination. The data set is classed as cell-based. Particulars: Staphylococcus epidermidis, ATCC12228.
In data set [8] the test system is E. coli MC1061. In words: MIC determination. The data set is classed as cell-based. The settings on record: Escherichia coli; Table 5; Mueller-Hinton medium; D = E. coli MC1061; read-out: MIC strain D.
Data set [9] concerns preformed biofilm of Ab ATCC 19606. In words: Biofilm disruption assay (crystal violet). The settings on record: compound added after formation of biofilm.
The test system of data set [10] is S. aureus ATCC 25923. The experiment in a line: MIC determination. The data set is classed as cell-based. The settings on record: Staphylococcus aureus, ATCC25923.
The test system of data set [11] is K. pneumoniae ATCC 27736. The experiment in a line: MIC determination. The settings on record: Klebsiella pneumoniae, ATCC27736; Table 5; Mueller-Hinton medium; F = K. pneumoniae ATCC 27736; read-out: MIC strain F. Format: cell-based.
Data set [12] deals with E. cloacae ATCC 13047. The experiment in a line: MIC determination. The data set is classed as cell-based. Particulars: Enterobacter cloacae, ATCC13047.
Data set [13] deals with M. smegmatis. The experiment in a line: MIC determination. The data set is classed as cell-based, Mycobacterium smegmatis. Particulars: Mycolicibacterium smegmatis; Table 4.
Data set [14] concerns Y. pestis CO92. The experiment in a line: microbe, parasite or virus in culture. Format: cell-based. Particulars: Yersinia pestis, CO92, read-out: MIC Y. pestis CO92.
Data set [15] deals with B. anthracis Sterne F32. In words: microbe, parasite or virus in culture. The data set is classed as cell-based. Particulars: Bacillus anthracis.

As usually defined, the inhibition of growth is the share of the control response that was lost under treatment. Take `O=C(NNc1ccc(Cl)cc1)c1ccc(F)cn1` [Compound 3e]: the “emergence of resistance (in words)” value in [1] is “not observed even after 15 passages; also recorded: Lack of resistance”. Further, the “effect on biofilm formation (prevention)” value in data set [2] is given as “biofilm formation was abolished at concentrations above MIC; also recorded: inhibited biofilm formation”. Also, the “bacteriostatic or bactericidal (time-kill)” value in data set [3] is listed as “bacteriostatic”. This compound returned an inhibition of growth in data set [4] of 17%. In addition, the MIC is > 64 µg/mL in [5]; 8 µg/mL (≈ 30.1 µM) in data set [6] (Table 4, read-out: MIC S. enterica ATCC 14028); 64 µg/mL (≈ 241 µM) in data set [6] (Table 5, Mueller-Hinton medium, H = S. enterica ATCC 14028, read-out: MIC strain H); > 16 µg/mL in data set [7] (Table 4, read-out: MIC S. epidermidis ATCC 12228); > 64 µg/mL in data set [7] (Table 5, Mueller-Hinton medium, C = S. epidermidis ATCC 12228, read-out: MIC strain C); 16 µg/mL (≈ 60.2 µM) in data set [8]. Besides, the MIC in data set [10] (Table 4, read-out: MIC S. Aureus ATCC 25923) is > 16 µg/mL; in [10] (Table 5, Mueller-Hinton medium, B = S. aureus ATCC 25923, read-out: MIC strain B), > 64 µg/mL; in data set [11] it was 64 µg/mL (≈ 241 µM); in data set [12] (Table 4, read-out: MIC E. cloacae ATCC 13047) it was 4 µg/mL (≈ 15.1 µM); in data set [12] (Table 5, Mueller-Hinton medium, E = E. cloacae ATCC 13047, read-out: MIC strain E), 16 µg/mL (≈ 60.2 µM); in data set [13], 4 µg/mL (≈ 15.1 µM). The MIC is 8 µg/mL (≈ 30.1 µM) in [14]; > 16 µg/mL in [15] (STERNEF32, read-out: MIC B. anthracis Sterne F32); > 64 µg/mL in data set [15] (STERNEF32, read-out: MIC strain A). The “effect on preformed biofilm (disruption)” value in data set [9] is recorded as “did not disrupt a preformed Ab biofilm; also recorded: did not disrupt the preformed biofilm”.
